According to US20080275002A1, “Method for Treatment of Hepatic Cancer” (TAIHO PHARMACEUTICAL CO., LTD., priority 2005, published 2008):

Assays:
hepatic cancer = conditions: animal model of hepatic cancer; cited from earlier work
[1] = system: advanced hepatocellular carcinoma; test: Clinical study (Phase I/II) of oral TAC-101 in patients with advanced hepatocellular carcinoma; assay type: in vivo
Description: Administrations were continued for patients without dose-limiting toxicities (DLT) and without aggravation of the cancer. […] Patients administered with the recommended dose in Phase I part were subjected to data analysis under assumption as Phase II part patients.
Specifically, after determination of the measurable lesions in each patient, the response was classified as complete response (CR), partial response (PR), minor response (MR), stabilization of the disease (SD), or progression of the disease (PD) for the efficacy evaluation.

[2] = molecular target: T1, retinoic acid receptor α (RAR-α) (Homo sapiens, UniProt P10276); conditions: activates transcription through the receptor; cited from earlier work
T1 sequence (P10276 1-462): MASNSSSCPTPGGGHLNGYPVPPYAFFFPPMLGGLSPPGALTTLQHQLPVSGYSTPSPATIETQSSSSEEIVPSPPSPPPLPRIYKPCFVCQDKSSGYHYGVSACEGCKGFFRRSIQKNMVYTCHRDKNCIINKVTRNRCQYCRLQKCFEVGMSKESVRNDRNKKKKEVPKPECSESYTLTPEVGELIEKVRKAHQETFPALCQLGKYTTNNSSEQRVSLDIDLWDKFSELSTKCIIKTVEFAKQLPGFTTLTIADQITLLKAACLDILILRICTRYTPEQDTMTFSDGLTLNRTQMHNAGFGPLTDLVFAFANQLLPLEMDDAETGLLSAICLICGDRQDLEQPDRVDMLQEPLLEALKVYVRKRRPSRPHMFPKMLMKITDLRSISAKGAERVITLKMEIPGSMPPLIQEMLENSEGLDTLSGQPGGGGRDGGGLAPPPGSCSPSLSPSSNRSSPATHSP

lung cancer = conditions: high dose, 60 to 80 mg/day, patients with lung cancer; cited from earlier work
[3] = 20 mg/day, side effects approximately grade 2

For `C[Si](C)(C)c1cc(C(=O)Nc2ccc(C(=O)O)cc2)cc([Si](C)(C)C)c1` [TAC-101, 4-[3,5-Bis(trimethylsilyl)benzamido]benzoic acid], the antitumor effects (hepatic cancer) is listed as “demonstrated”, the “therapy terminated because of grade 3 increase of aspartate aminotransferase (AST)” value ([1]; 20 mg/day) is listed as “one” and the “therapy terminated because of onset of grade 3 venous thrombosis embolism (VTE)” value ([1]; 20 mg/day) is listed as “one”. The “therapy terminated because of onset of grade 4 pulmonary embolism (PE)” value ([1]; 20 mg/day) was “one”, the “patients developing dose-limiting toxicity (DLT)” value ([1]; 20 mg/day oral, among 7 patients, pancreatitis and fatigue) was “one” and the “share of patients with TTF 12 weeks or longer” value ([1]; 20 mg/day, 9/21) was 42%. For the same molecule, the “PR or CR case (WHO criteria)” value ([1]; 20 mg/day, 21 evaluable patients) was “not observed”, the “time to treatment failure (TTF)” value ([1]; 20 mg/day, all 21 patients) was 6.6 weeks and the “patients to whom four or more courses were applicable, progress of the hepatic cancer significantly arrested” value ([1]; 20 mg/day, of 21 evaluable patients) was 9 patients. For the same molecule, the “patients with TTF 12 weeks or longer (progress arrested, no deterioration)” value ([1]; 20 mg/day, of 21 patients) was 9 patients, the “AST increase, incidence” value [1, 3] was 14.3% and the “AST increase, number of patients” value [1, 3] was 4 patients. The “alanine aminotransferase (ALT), incidence” value [1, 3] was 14.3%, the “alanine aminotransferase (ALT), number of patients” value [1, 3] was 4 patients and the “anorexia, incidence” value [1, 3] was 10.7%. For the same molecule, the “anorexia, number of patients” value [1, 3] was 3 patients, the “dermatitis, incidence” value [1, 3] was 21.4% and the “dermatitis, number of patients” value [1, 3] was 6 patients. The “fatigue, incidence” value [1, 3] was 32%, the “fatigue, number of patients” value [1, 3] was 9 patients and the “increased triglycerides, incidence” value [1, 3] was 28.6%. The “increased triglycerides, number of patients” value [1, 3] was 8 patients, the “myalgias, incidence” value [1, 3] was 28.6% and the “myalgias, number of patients” value [1, 3] was 8 patients. For the same molecule, the “nausea, incidence” value [1, 3] was 14.3%, the “nausea, number of patients” value [1, 3] was 4 patients and the “maximum tolerance dose (MTD)” value ([1]; 14 days daily oral administration, 7 days withdrawal) was 20 mg/day. The “binding to RAR-α” value [2] was “binding selectively”, the “deep vein thrombosis (DVT), dose-limiting toxicity” value (lung cancer) was “frequently induces deep vein thrombosis” and the tumor response (lung cancer) was “tumor reducing effects (PR and CR)”.
